Reference: patent publication US20230143490A1, “METHODS OF TREATING SOIL” (Taminco BV, priority 2020, published 2023)

Assays:
Foc TR4 chlamydospores = test: In vitro efficacy of metam sodium on Foc TR4 chlamydospores (colony growth on PDA plates); assay type: cell-based, Fusarium oxysporum f. sp. cubense Tropical Race 4
Protocol: Foc TR4 chlamydospores were extracted from infested soil and incubated with a dilution series of metam sodium for 5 min and 60 min at room temperature. Thereafter, the samples were diluted 10× to get reduction of the treatment and sufficient dilution of chlamydospores to avoid lack of resolution when grown on plate. Aliquots of 100 μl were plated on PDA plates in duplicate and incubated for 3 days at 25° C. Plates were photographed and scored.

Cavendish banana plants = test: Field trial: banana plant growth and development after metam sodium soil injection at 30 cm and 60 cm; assay type: in vivo, Musa (Cavendish banana)
Protocol: (§1) Metam Sodium Application. Metam sodium 510 SL (equivalent to 42% w/w) was applied to soil at the following doses: 0 liters per hectare (L/ha), 750 L/ha, 1500 L/ha, 2250 L/ha, 3000 L/ha.
(§2) Prior to injection, soil was prepared using a rototiller to break the soil structure from 0 cm to 80 cm deep, allowing for the smooth and even injection application by an injection machine. The soil was then leveled and made uniform, and the metam sodium was applied at two depths: 30 cm and 60 cm, using injection methods. The temperature was at a minimum of 10° C. and soil humidity was between 50 and 60% holding capacity, allowing the applied product to transform from metam sodium (liquid) to MITC (gas).
(§3) The application was made using an injection machine wherein the machine lowered shanks and began moving forward such that the shanks lowered to a depth of 60 cm and injectors applied the metam sodium into the soil. When the injection at 60 cm was complete, the process was repeated for the entire field at 30 cm. The treated soil in the field was then sealed using a packer roller (which was part of the injection machinery, located at the back end of the machine), after each application.
Plant Selection and Transplantation. Cavendish banana plants were used for this investigation. In order to avoid plants already contaminated by other soil, all plants were produced in vitro using art-recognized methods. Plants were transplanted into the field 14 days after the final soil reading was taken (21 days after treatment).
Data Gathering. Data were gathered at monthly intervals beginning three months after banana plants were transplanted. A total of three data collection sessions were conducted. Data including the number of leaves, plant height, and girth size were collected.

[1] = system: F. oxysporum f. sp. cubense; test: Panama disease analysis of field soil samples after metam sodium injection (plating on Komada medium); assay type: in vivo, Fusarium oxysporum f. sp. cubense Tropical Race 4; settings: any of the treated groups; any day post application
Protocol: as §1, §2, §3
Soil Analysis. Soil samples were obtained at 20, 40, and 60 cm before application and every 24 hours beginning 48 hours after application, for seven days.
Plant Pathology Analysis. […]

[2] = 750 L/ha, six months after treatment
[3] = 1500 L/ha, six months after treatment
[4] = 2250 L/ha, six months after treatment
[5] = 3000 L/ha, six months after treatment

CNC(=S)S [metam sodium, sodium N-methyldithiocarbamate]
reducing the number of surviving chlamydospores, measured as growing colonies (Foc TR4 chlamydospores; 100× dilution, prolonged incubation (60 min vs 5 min)): more effective
efficacy on Foc TR4 colony growth (Foc TR4 chlamydospores; dilution of 10×, incubation time 5 minutes): effective
efficacy on Foc TR4 colony growth (Foc TR4 chlamydospores; dilution of 100×, 5 and 60 minutes): less effective
reduction in viability of Foc TR4 chlamydospores (Foc TR4 chlamydospores; first test, dilutions from 1000 up to 10×10^6-fold, 60 min): No significant reduction in viability
efficacy against Foc TR4 chlamydospores (Foc TR4 chlamydospores; in vitro conditions, dependent on high concentrations): effective against Foc TR4 chlamydospores
efficacy on chlamydospore survival (Foc TR4 chlamydospores; second test, 10× and 100× dilutions): (partially) effective
number of chlamydospores that survived (Foc TR4 chlamydospores; second test, dilutions of 1000× and more): did not affect the number of chlamydospores that survived
average girth size of banana plant, increase (Cavendish banana plants; 750 L/ha): ~1 cm
average height of banana plant, increase (Cavendish banana plants; 750 L/ha): ~5 cm
percent of plants at either shooting or bagging stage (Cavendish banana plants; [2]): 11%
percent of plants at shooting stage (Cavendish banana plants; [2]): 9%
plants reaching bagging stage (Cavendish banana plants; [2]): did not have a meaningful effect
average girth size of banana plant, increase (Cavendish banana plants; 1500-3000 L/ha): 4-6 cm
average height of banana plant, increase (Cavendish banana plants; 1500-3000 L/ha): 20-23 cm
percent of plants at either shooting or bagging stage (Cavendish banana plants; [3]): 28%
percent of plants at shooting stage (Cavendish banana plants; [3]): 10%
percent of plants at bagging stage (Cavendish banana plants; 1500 to 3000 L/ha, six months after treatment): 11-19%
percent of plants at either shooting or bagging stage (Cavendish banana plants; [4]): 27%
percent of plants at shooting stage (Cavendish banana plants; [4]): 17%
percent of plants at either shooting or bagging stage (Cavendish banana plants; [5]): 35%
percent of plants at shooting stage (Cavendish banana plants; [5]): 22%
average number of leaves, increase (Cavendish banana plants; regardless of dose applied (750-3000 L/ha), vs 0 L/ha): roughly 1.5 fold
soil contamination: Foc TR4 detection [1]: No Foc TR4 was detected
